Reference: the CheMixHub viscosity set

Experiment: xn = mol fraction of the nth substance listed

CCOC(=O)CCC(=O)OCC + CCCC(=O)OCC
Conditions	viscosity [mPa·s]
303.15 K, 100 kPa, x2 = 0.3003	1.535

CCCCCCCCCCC + CCCCC
viscosity [mPa·s]
Conditions	293.15 K	298.15 K	303.15 K	308.15 K	313.15 K	318.15 K	323.15 K
100 kPa, x2 = 0.1034	1.033	0.957	0.887	0.825	0.77	0.721	0.677
100 kPa, x2 = 0.2018	0.906	0.842	0.784	0.732	0.686	0.645	0.607
100 kPa, x2 = 0.3079	0.774	0.723	0.676	0.634	0.597	0.563	0.531
100 kPa, x2 = 0.3996	0.689	0.645	0.606	0.571	0.538	0.509	0.483
100 kPa, x2 = 0.5027	0.594	0.556	0.523	0.494	0.468	0.444	0.422
100 kPa, x2 = 0.6106	0.488	0.461	0.437	0.415	0.395	0.376	0.366
100 kPa, x2 = 0.702	0.427	0.405	0.386	0.368	0.358	–	–
100 kPa, x2 = 0.8003	0.359	0.341	0.324	0.308	–	–	–
100 kPa, x2 = 0.8988	0.287	0.273	0.259	–	–	–	–
101.33 kPa, x2 = 0.0962	–	0.9653	–	–	–	–	–
101.33 kPa, x2 = 0.1826	–	0.8798	–	–	–	–	–
101.33 kPa, x2 = 0.274	–	0.7841	–	–	–	–	–
101.33 kPa, x2 = 0.368	–	0.6944	–	–	–	–	–
101.33 kPa, x2 = 0.4834	–	0.5825	–	–	–	–	–
101.33 kPa, x2 = 0.5738	–	0.5061	–	–	–	–	–
101.33 kPa, x2 = 0.6599	–	0.4333	–	–	–	–	–
101.33 kPa, x2 = 0.7461	–	0.3731	–	–	–	–	–
101.33 kPa, x2 = 0.8967	–	0.2805	–	–	–	–	–

CCCCCCCCCCC + CCCCCC
viscosity [mPa·s]
Conditions	293.15 K	298.15 K	303.15 K	308.15 K	313.15 K	318.15 K	323.15 K
100 kPa, x2 = 0.1021	1.036	0.958	0.89	0.828	0.773	0.724	0.68
100 kPa, x2 = 0.1994	0.934	0.867	0.804	0.751	0.704	0.662	0.623
100 kPa, x2 = 0.306	0.819	0.763	0.712	0.668	0.627	0.591	0.558
100 kPa, x2 = 0.4014	0.731	0.684	0.64	0.602	0.567	0.535	0.507
100 kPa, x2 = 0.4991	0.646	0.606	0.57	0.538	0.508	0.481	0.456
100 kPa, x2 = 0.601	0.563	0.53	0.5	0.473	0.449	0.426	0.406
100 kPa, x2 = 0.7028	0.489	0.462	0.438	0.415	0.395	0.377	0.36
100 kPa, x2 = 0.7989	0.424	0.402	0.383	0.365	0.348	0.333	0.319
100 kPa, x2 = 0.9	0.364	0.347	0.331	0.315	0.302	0.292	0.28
101.33 kPa, x2 = 0.1036	–	0.963	–	–	–	–	–
101.33 kPa, x2 = 0.1988	–	0.876	–	–	–	–	–
101.33 kPa, x2 = 0.2999	–	0.7746	–	–	–	–	–
101.33 kPa, x2 = 0.4051	–	0.6933	–	–	–	–	–
101.33 kPa, x2 = 0.5076	–	0.609	–	–	–	–	–
101.33 kPa, x2 = 0.606	–	0.5391	–	–	–	–	–
101.33 kPa, x2 = 0.7068	–	0.4643	–	–	–	–	–
101.33 kPa, x2 = 0.8048	–	0.4044	–	–	–	–	–
101.33 kPa, x2 = 0.9022	–	0.3552	–	–	–	–	–

CCCCCCCCCCC + CCCCCCC
viscosity [mPa·s]
Conditions	100 kPa	101.33 kPa
297.15 K, x2 = 0.5	–	0.6901
298.15 K, x2 = 0.1084	–	0.9818
298.15 K, x2 = 0.2093	–	0.8983
298.15 K, x2 = 0.3019	–	0.8173
298.15 K, x2 = 0.4051	–	0.7452
298.15 K, x2 = 0.5067	–	0.672
298.15 K, x2 = 0.6076	–	0.6072
298.15 K, x2 = 0.7041	–	0.5479
298.15 K, x2 = 0.8052	–	0.4894
298.15 K, x2 = 0.8998	–	0.4335
302.98 K, x2 = 0.8	0.4886	–
303.09 K, x2 = 0.5	0.6364	0.6364
312.85 K, x2 = 0.5	–	0.563
323.04 K, x2 = 0.5	0.5009	0.5009

CCCCCCCCCCC + CCCCCCCC
298.15 K, 101.33 kPa
Conditions	viscosity [mPa·s]
x2 = 0.1011	1.012
x2 = 0.2077	0.9375
x2 = 0.3112	0.8621
x2 = 0.406	0.8112
x2 = 0.5073	0.7521
x2 = 0.6089	0.7019
x2 = 0.7063	0.645
x2 = 0.8047	0.6014
x2 = 0.9039	0.5503

CCCCCCCCCCC + CCCCCCCCC
298.15 K, 101.33 kPa
Conditions	viscosity [mPa·s]
x2 = 0.1034	1.03
x2 = 0.2088	0.9658
x2 = 0.3024	0.931
x2 = 0.4073	0.8929
x2 = 0.5057	0.8476
x2 = 0.6037	0.8141
x2 = 0.7055	0.77
x2 = 0.8002	0.7331
x2 = 0.9038	0.687

CCCCCCCCCCC + CCCCCCCCCC
298.15 K, 101.33 kPa
Conditions	viscosity [mPa·s]
x2 = 0.1074	1.056
x2 = 0.2094	1.03
x2 = 0.3054	1.009
x2 = 0.4086	0.9854
x2 = 0.5085	0.9556
x2 = 0.608	0.9393
x2 = 0.7092	0.9206
x2 = 0.8045	0.9013
x2 = 0.9056	0.868

CCCCCCCCCCC + CCCCCCCCCCCC
298.15 K, 101.33 kPa
Conditions	viscosity [mPa·s]
x1 = 0.106	1.314
x1 = 0.2057	1.297
x1 = 0.3093	1.253
x1 = 0.4136	1.236
x1 = 0.5553	1.196
x1 = 0.6095	1.175
x1 = 0.7174	1.143
x1 = 0.8145	1.126
x1 = 0.9084	1.11

CCCCCCCCCCC + CCCCCCCCCCCCCCCC
298.15 K, 101.33 kPa
Conditions	viscosity [mPa·s]
x1 = 0.1095	2.783
x1 = 0.2008	2.549
x1 = 0.3116	2.315
x1 = 0.4052	2.108
x1 = 0.5071	1.905
x1 = 0.6081	1.723
x1 = 0.7051	1.534
x1 = 0.806	1.363
x1 = 0.9031	1.209
